Consider 22 molecules from patent US9024017B2, “Octahydro-cyclopentapyrrolyl antagonists of CCR2” (Janssen Pharmaceutica NV, priority 2012, dated 2015).

T1 sequence (P41597 whole entry): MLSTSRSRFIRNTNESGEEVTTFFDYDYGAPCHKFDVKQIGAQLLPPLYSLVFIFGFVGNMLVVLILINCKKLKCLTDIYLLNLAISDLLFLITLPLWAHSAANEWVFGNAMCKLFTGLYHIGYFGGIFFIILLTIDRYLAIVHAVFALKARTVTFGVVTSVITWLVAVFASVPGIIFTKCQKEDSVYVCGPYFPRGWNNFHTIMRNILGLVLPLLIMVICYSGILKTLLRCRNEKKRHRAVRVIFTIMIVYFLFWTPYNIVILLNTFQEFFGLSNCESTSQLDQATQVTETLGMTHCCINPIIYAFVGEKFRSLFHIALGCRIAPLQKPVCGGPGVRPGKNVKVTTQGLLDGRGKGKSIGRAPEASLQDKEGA

This test has as its target T1, CCR2 (Homo sapiens, UniProt P41597).
T1 construct: host or cells: THP-1 (human monocytic cell line)
Put plainly: MCP-1 Receptor Binding Assay in THP-1 Cells. Conditions: read-out: MCP1B_v3 IC50. The gist of the method:
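Human monocytic THP-1 cells incubated 2 h at 30 °C with 0.5 nM 125I-MCP-1 and varying concentrations of test compound or unlabelled MCP-1. Cells filter-harvested and counted by scintillation; blank subtracted, compared with vehicle; nonspecific binding with 1 μM cold MCP-1.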
As usually defined, the IC50 is the concentration that inhibits the measured activity by half. Regarding `COC1COCCC1N[C@@H]1C[C@H]2CN(Cc3ccccc3)C[C@@]2(C(=O)N2CCc3ncc(C(F)(F)F)cc3C2)C1` (relative stereo) [Example 101, ((3aR,5R,6aR)-2-Benzyl-5-(((3S*,4S*)-3-methoxytetrahydro-2H-pyran-4-yl)amino)octahydrocyclopenta[c]pyrrol-3a-yl)(3-(trifluoromethyl)-7,8-dihydro-1,6-naphthyridin-6(5H)-yl)methanone], the concentration for half-maximal inhibition (IC50) turned out to be 370 nM.

Consider `COC1COCCC1N[C@@H]1C[C@H]2CN(CCc3ccccc3)C[C@@]2(C(=O)N2CCc3ncc(C(F)(F)F)cc3C2)C1` (relative stereo) [Example 102, ((3aR,5R,6aR)-5-(((3S*,4S*)-3-Methoxytetrahydro-2H-pyran-4-yl)amino)-2-phenethyloctahydrocyclopenta[c]pyrrol-3a-yl)(3-(trifluoromethyl)-7,8-dihydro-1,6-naphthyridin-6(5H)-yl)methanone], for which the concentration for half-maximal inhibition (IC50) amounted to 1000 nM.

As for `COC1COCCC1N[C@@H]1C[C@H]2CN(CCCc3ccccc3)C[C@@]2(C(=O)N2CCc3ncc(C(F)(F)F)cc3C2)C1` (relative stereo) [Example 103, ((3aR,5R,6aR)-5-(((3S*,4S*)-3-Methoxytetrahydro-2H-pyran-4-yl)amino)-2-(3-phenylpropyl)octahydrocyclopenta[c]pyrrol-3a-yl)(3-(trifluoromethyl)-7,8-dihydro-1,6-naphthyridin-6(5H)-yl)methanone], the IC50 worked out at 1000 nM. Then `COC1COCCC1N[C@@H]1C[C@H]2CN(C3CCOCC3OC)C[C@@]2(C(=O)N2CCc3ncc(C(F)(F)F)cc3C2)C1` (relative stereo) [Example 104, ((3aR,5R,6aR)-2-((3S*,4S*)-3-Methoxytetrahydro-2H-pyran-4-yl)-5-(((3S*,4S*)-3-methoxytetrahydro-2H-pyran-4-yl)amino)octahydrocyclopenta[c]pyrrol-3a-yl)(3-(trifluoromethyl)-7,8-dihydro-1,6-naphthyridin-6(5H)-yl)methanone], with 1980 nM. Then `COC1COCCC1N[C@@H]1C[C@H]2CN(C3CCOCC3OC)C[C@@]2(C(=O)N2CCc3ccc(C(F)(F)F)cc3C2)C1` (relative stereo) [Example 105, ((3aR,5R,6aR)-2-((3S*,4S*)-3-Methoxytetrahydro-2H-pyran-4-yl)-5-(((3S*,4S*)-3-methoxytetrahydro-2H-pyran-4-yl)amino)octahydrocyclopenta[c]pyrrol-3a-yl)(7-(trifluoromethyl)-3,4-dihydroisoquinolin-2(1H)-yl)methanone], with 120 nM.

On to `COC1COCCC1N[C@@H]1C[C@H]2CN(CC(=O)N(C)C)C[C@@]2(C(=O)N2CCc3ncc(C(F)(F)F)cc3C2)C1` (relative stereo) [Example 106, 2-((3aR,5R,6aR)-5-(((3S*,4S*)-3-Methoxytetrahydro-2H-pyran-4-yl)amino)-3a-(3-(trifluoromethyl)-5,6,7,8-tetrahydro-1,6-naphthyridine-6-carbonyl)hexahydrocyclopenta[c]pyrrol-2(1H)-yl)-N,N-dimethylacetamide], for which the IC50 was 2800 nM. Then `COC(=O)CN1C[C@@H]2C[C@@H](NC3CCOCC3OC)C[C@]2(C(=O)N2CCc3ncc(C(F)(F)F)cc3C2)C1` (relative stereo) [Example 107, Methyl 2-((3aR,5R,6aR)-5-(((3S*,4S*)-3-methoxytetrahydro-2H-pyran-4-yl)amino)-3a-(3-(trifluoromethyl)-5,6,7,8-tetrahydro-1,6-naphthyridine-6-carbonyl)hexahydrocyclopenta[c]pyrrol-2(1H)-yl)acetate], with 1100 nM. On to `COC1COCCC1N[C@@H]1C[C@H]2CN(c3ccccc3)C[C@@]2(C(=O)N2CCc3ncc(C(F)(F)F)cc3C2)C1` (relative stereo) [Example 108, ((3aR,5R,6aR)-5-(((3S*,4S*)-3-Methoxytetrahydro-2H-pyran-4-yl)amino)-2-phenyloctahydrocyclopenta[c]pyrrol-3a-yl)(3-(trifluoromethyl)-7,8-dihydro-1,6-naphthyridin-6(5H)-yl)methanone], for which the IC50 was found to be 120 nM.

`COC1COCCC1N[C@@H]1C[C@H]2CN(c3nccs3)C[C@@]2(C(=O)N2CCc3ncc(C(F)(F)F)cc3C2)C1` (relative stereo) [Example 110, ((3aR,5R,6aR)-5-(((3S*,4S*)-3-Methoxytetrahydro-2H-pyran-4-yl)amino)-2-(thiazol-2-yl)octahydrocyclopenta[c]pyrrol-3a-yl)(3-(trifluoromethyl)-7,8-dihydro-1,6-naphthyridin-6(5H)-yl)methanone]: the IC50 was determined as 150 nM. Then `COC1COCCC1N[C@@H]1C[C@H]2CN(c3nc(C)no3)C[C@@]2(C(=O)N2CCc3ncc(C(F)(F)F)cc3C2)C1` (relative stereo) [Example 111, ((3aR,5R,6aR)-5-(((3S*,4S*)-3-Methoxytetrahydro-2H-pyran-4-yl)amino)-2-(3-methyl-1,2,4-oxadiazol-5-yl)octahydrocyclopenta[c]pyrrol-3a-yl)(3-(trifluoromethyl)-7,8-dihydro-1,6-naphthyridin-6(5H)-yl)methanone], with 270 nM; and `COC1COCCC1N[C@@H]1C[C@H]2CN(C3=NCCS3)C[C@@]2(C(=O)N2CCc3ncc(C(F)(F)F)cc3C2)C1` (relative stereo) [Example 112, ((3aR,5R,6aR)-2-(4,5-Dihydrothiazol-2-yl)-5-(((3S*,4S*)-3-methoxytetrahydro-2H-pyran-4-yl)amino)octahydrocyclopenta[c]pyrrol-3a-yl)(3-(trifluoromethyl)-7,8-dihydro-1,6-naphthyridin-6(5H)-yl)methanone], with 3660 nM; and `COC1COCCC1N[C@@H]1C[C@H]2CN(C3=NCCO3)C[C@@]2(C(=O)N2CCc3ncc(C(F)(F)F)cc3C2)C1` (relative stereo) [Example 113, ((3aR,5R,6aR)-2-(4,5-Dihydrooxazol-2-yl)-5-(((3S*,4S*)-3-methoxytetrahydro-2H-pyran-4-yl)amino)octahydrocyclopenta[c]pyrrol-3a-yl)(3-(trifluoromethyl)-7,8-dihydro-1,6-naphthyridin-6(5H)-yl)methanone], with 100 nM. For the molecule `COC1COCCC1N[C@@H]1C[C@H]2CN(C=O)C[C@@]2(C(=O)N2CCc3ncc(C(F)(F)F)cc3C2)C1` (relative stereo) [Example 114, (3aR,5R,6aR)-5-(((3S*,4S*)-3-Methoxytetrahydro-2H-pyran-4-yl)amino)-3a-(3-(trifluoromethyl)-5,6,7,8-tetrahydro-1,6-naphthyridine-6-carbonyl)hexahydrocyclopenta-[c]pyrrole-2(1H)-carbaldehyde], the IC50 worked out at 370 nM. The figure for `COC1COCCC1N[C@@H]1C[C@H]2CN(/C(N)=N\C#N)C[C@@]2(C(=O)N2CCc3ncc(C(F)(F)F)cc3C2)C1` (relative stereo) [Example 115, (3aR,5R,6aR,E)-N′-Cyano-5-(((3S*,4S*)-3-methoxytetrahydro-2H-pyran-4-yl)amino)-3a-(3-(trifluoromethyl)-5,6,7,8-tetrahydro-1,6-naphthyridine-6-carbonyl)hexahydrocyclopenta-[c]pyrrole-2(1H)-carboximidamide] is 40 nM; for `COC1COCCC1N[C@@H]1C[C@H]2CN(/C(N)=N/O)C[C@@]2(C(=O)N2CCc3ncc(C(F)(F)F)cc3C2)C1` (relative stereo) [Example 116, (3aR,5R,6aR,E)-N′-Hydroxy-5-(((3S*,4S*)-3-methoxytetrahydro-2H-pyran-4-yl)amino)-3a-(3-(trifluoromethyl)-5,6,7,8-tetrahydro-1,6-naphthyridine-6-carbonyl)hexahydro-cyclopenta[c]pyrrole-2(1H)-carboximidamide] it is 1800 nM; for `COC1COCCC1N[C@@H]1C[C@H]2CN(C#N)C[C@@]2(C(=O)N2CCc3ncc(C(F)(F)F)cc3C2)C1` (relative stereo) [Example 117, (3aR,5R,6aR)-5-(((3S*,4S*)-3-Methoxytetrahydro-2H-pyran-4-yl)amino)-3a-(3-(trifluoromethyl)-5,6,7,8-tetrahydro-1,6-naphthyridine-6-carbonyl)hexahydrocyclopenta[c]pyrrole-2(1H)-carbonitrile] it is 5400 nM. In the case of `COC1COCCC1N[C@@H]1C[C@H]2C(=O)NC[C@@]2(C(=O)N2CCc3ncc(C(F)(F)F)cc3C2)C1` (relative stereo) [Example 118, (3aR,5R,6aR)-5-(((3S*,4S*)-3-Methoxytetrahydro-2H-pyran-4-yl)amino)-3a-(3-(trifluoromethyl)-5,6,7,8-tetrahydro-1,6-naphthyridine-6-carbonyl)hexahydro-cyclopenta[c]pyrrol-(2H)-one], the IC50 amounted to 22800 nM.

Turning to `COC1COCCC1N[C@@H]1C[C@H]2CNC(=O)[C@@]2(C(=O)N2CCc3ncc(C(F)(F)F)cc3C2)C1` (relative stereo) [Example 119, (3aR,5R,6aR)-5-(((3S*,4S*)-3-Methoxytetrahydro-2H-pyran-4-yl)amino)-6a-(3-(trifluoromethyl)-5,6,7,8-tetrahydro-1,6-naphthyridine-6-carbonyl)hexahydrocyclopenta-[c]pyrrol-1(2H)-one], the IC50 is 12000 nM.

For `CO[C@@H]1COCC[C@@H]1N[C@@H]1C[C@H]2CN(C(N)=O)C[C@@]2(C(=O)N2CCc3ncc(C(F)(F)F)cc3C2)C1` [Example 3], the 50% inhibitory concentration (IC50) was determined as 30 nM.

Regarding `CO[C@H]1COCC[C@H]1N[C@@H]1C[C@H]2CN(C(N)=O)C[C@@]2(C(=O)N2CCc3ncc(C(F)(F)F)cc3C2)C1` [Example 4], the IC50 came to 40 nM.

In the case of `COCCN[C@@H]1C[C@H]2CN(C(N)=O)C[C@@]2(C(=O)N2CCc3ncc(C(F)(F)F)cc3C2)C1` [Example 7], the IC50 was found to be 5060 nM. Turning to `NC(=O)N1C[C@@H]2C[C@@H](NC3CCOCC3)C[C@]2(C(=O)N2CCc3ncc(C(F)(F)F)cc3C2)C1` [Example 8], the IC50 worked out at 170 nM.
